# Literature values in patent publication US20110052648A1, “ORAL MODIFIED-RELEASE FORMULATIONS CONTAINING THIAZEPINES” (priority 2008, published 2011).
smiles,measurement,value
"OCCOCCN1CCN(C2=Nc3ccccc3Sc3ccccc32)CC1 [Quetiapine, 11-[4-[2-(2-hydroxyethoxy)ethyl]-1-piperazinyl]dibenzo[b,f][1,4]-thiazepine]",solubility in water,moderately soluble
